PubChem BioAssay (NCI)
Where “and” joins values, the source holds several entries; their conditions need not be identical. Equal entries are not always repeated.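 Dose response: 5 concentrations. Exposure: 48 h. Format: 96-well plates. Endpoint: linear interpolation; highest concentration if not reached. At the GI50, growth is halved. At the TGI there is no net growth.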

Experiments:
Experiment in all cases: NCI anticancer screen, dose series, 48 h
K-562 leukemia = test system: K-562 leukemia
LXFL 529 NSCLC = test system: LXFL 529 NSCLC
NCI-H460 lung = test system: NCI-H460 lung
OVCAR-5 ovarian = test system: OVCAR-5 ovarian
786-0 renal = test system: 786-0 renal
UO-31 renal = test system: UO-31 renal
A498 renal = test system: A498 renal
SNB-78 CNS = test system: SNB-78 CNS
NCI-H522 lung = test system: NCI-H522 lung
CCRF-CEM leukemia = test system: CCRF-CEM leukemia

Row | Structure (SMILES) | TGI (K-562 leukemia) | TGI (LXFL 529 NSCLC) [µM] | TGI (NCI-H460 lung) | TGI (OVCAR-5 ovarian) | TGI (786-0 renal) | TGI (UO-31 renal) | TGI (A498 renal) | TGI (SNB-78 CNS) [µM] | TGI (NCI-H522 lung) | TGI (CCRF-CEM leukemia) | GI50 (K-562 leukemia) | GI50 (LXFL 529 NSCLC) [µM] | GI50 (NCI-H460 lung) | GI50 (OVCAR-5 ovarian) | GI50 (786-0 renal) | GI50 (UO-31 renal) | GI50 (A498 renal) | GI50 (SNB-78 CNS) [µM] | GI50 (CCRF-CEM leukemia) | GI50 (NCI-H522 lung)
1 | O=C(CC(=O)N1N=C(c2ccccc2)C(N=Nc2ccc(C(=O)O)cc2)C1=O)Nc1ccc(F)cc1 (stereo unspecified) | > 100 µM | > 100 | > 100 µM | > 100 µM | 63 µM | 73.4 µM | 81.7 µM | > 100 | 33.3 µM | – | – | – | – | – | – | – | – | – | – | –
2 | c1ccc2c(CNCCCCCCNCc3cccc4ccccc34)cccc2c1 | 3.22 µM | 3.39 | 3.75 µM | 29.3 µM | 26.1 µM | 23.9 µM | 33.6 µM | 23.9 | 9.78 µM | 9.62 µM | – | – | – | – | – | – | – | – | – | –
3 | CC#C[C@@]1(O)CCCC[C@@H]1O | > 100 µM | – | > 100 µM | – | > 100 µM | > 100 µM | > 100 µM | > 100 | > 100 µM | > 100 µM | – | – | – | – | – | – | – | – | – | –
4 | Cc1cc(NS(=O)(=O)c2ccc(Nc3c4ccccc4nc4c(C(=O)Nc5ccc(S(=O)(=O)N=C(N)N)cc5)cccc34)cc2)no1 | > 100 µM | > 100 | > 100 µM | > 100 µM | > 100 µM | > 100 µM | > 100 µM | > 100 | > 100 µM | > 100 µM | – | – | – | – | – | – | – | – | – | –
5 | COC(=O)/C=C/C(=O)C1C(C(=O)OC)C2(C(=O)OC)CCC1(C(=O)OC)N2 (stereo unspecified) | > 100 µM | – | – | > 100 µM | > 100 µM | > 100 µM | – | > 100 | – | – | – | – | – | – | – | – | – | – | – | –
6 | Cc1cc(C)cc(-n2c3nc(=O)n(C)c(=O)c-3nc3ccccc32)c1 | 65.3 µM | > 100 | 94.4 µM | 93.1 µM | > 100 µM | > 100 µM | > 100 µM | > 100 | 44.2 µM | 61 µM | – | – | – | – | – | – | – | – | – | –
7 | COC(=O)C(=O)C1(CCC(C)=O)c2ccccc2-c2ccccc21 | > 100 µM | > 100 | > 100 µM | > 100 µM | > 100 µM | > 100 µM | > 100 µM | – | > 100 µM | > 100 µM | – | – | – | – | – | – | – | – | – | –
8 | COC(=O)C[CH](C(=O)OC)[Ge]([CH3])([CH3])[S]c1ccccc1 (stereo unspecified) | > 100 µM | 36 | 28.8 µM | 42.6 µM | 30.7 µM | 21 µM | 60.9 µM | 96.7 | 10.3 µM | 6.25 µM | 17.4 µM | 17.5 | 15.5 µM | 18.7 µM | 15.9 µM | 7.06 µM | 19.7 µM | 22.1 | 1670 nM | 2.94 µM
9 | Cc1cccc(NC(=O)C(=O)C2C(=O)NC(=O)NC2=O)c1C | > 100 µM | > 100 | > 100 µM | > 100 µM | > 100 µM | > 100 µM | > 100 µM | > 100 | > 100 µM | > 100 µM | – | – | – | – | – | – | – | – | – | –
10 | CC(C)[C@@H]1C=C(c2ccccc2)c2ccccc2C1C(C#N)(C#N)C(C)C (stereo partly specified) | > 100 µM | > 100 | > 100 µM | > 100 µM | > 100 µM | > 100 µM | > 100 µM | > 100 | – | > 100 µM | – | – | – | – | – | – | – | – | – | –
11 | CCCCCCCCCCCC(=O)OCC1OC(n2cc(F)c(=O)[nH]c2=O)C(NC(=O)OCc2ccccc2)C(O)C1O (stereo unspecified) | 52.3 µM | 34.3 | 34.3 µM | – | 50.9 µM | 93 µM | 51.4 µM | 87.7 | 30.8 µM | 41.7 µM | – | – | – | – | – | – | – | – | – | –
12 | S=c1nc(-c2ccccc2)oc(=NC2CCCCC2)n1C1CCCCC1 | > 100 µM | – | 10.2 µM | 30.3 µM | 16.2 µM | > 100 µM | 13 µM | – | 18.3 µM | 8.87 µM | 5.25 µM | – | 2.93 µM | 8.54 µM | 4.46 µM | > 100 µM | 3.61 µM | – | 1750 nM | 4.8 µM
13 | CCC1C(C)c2c([nH]c3ccccc23)C2C(=O)N(c3ccccc3)C(=O)C21 (stereo unspecified) | 44.3 µM | 96.2 | 28.2 µM | – | 34.5 µM | – | – | 67.6 | – | 71.9 µM | – | – | – | – | – | – | – | – | – | –
14 | COc1ccc2c(c1)CCC1C2CC[C@@]2(C)C1CC[C@@]2(O)CNC(=O)/C=C/c1ccc(O)c(OC)c1 (stereo partly specified) | > 100 µM | – | > 100 µM | > 100 µM | > 100 µM | > 100 µM | 54.5 µM | – | > 100 µM | > 100 µM | 12.3 µM | – | 4.02 µM | 45.5 µM | 23.2 µM | 10.3 µM | 23 µM | – | 932 nM | 19.9 µM
15 | CC(C)C[C@H](NC(=O)[C@H](CCc1ccccc1)NC(=O)CN1CCOCC1)C(=O)N[C@@H](Cc1ccccc1)C(=O)N[C@@H](CC(C)C)C(=O)[C@@]1(C)CO1 | > 100 µM | – | 0.153 µM | 0.112 µM | 0.332 µM | 0.575 µM | 0.0987 µM | – | 0.0239 µM | > 100 µM | 0.0252 µM | – | 0.0235 µM | 0.0255 µM | 0.0311 µM | 0.116 µM | 0.0227 µM | – | < 10 nM | < 0.01 µM
16 | C=C(C=O)C1CC(=O)C(C(=O)OC)[C@@H]2O[C@@](C)(CC2=O)C[C@@H]2OC(=O)[C@]3(O[C@@H]23)[C@@H](C(=O)OC)C1 (stereo partly specified) | > 100 µM | – | 70.8 µM | 51.2 µM | 51 µM | 48.9 µM | 47 µM | – | 41.5 µM | > 100 µM | 20.1 µM | – | 24.4 µM | 23.1 µM | 19.3 µM | 19 µM | 20.7 µM | – | 5810 nM | 7.03 µM
17 | CCN1CCN(c2nc(NNC(=O)Cc3ccccc3)nc(N3CCN(C(c4ccccc4)c4ccccc4)CC3)n2)CC1 | 4.38 µM | – | 3.63 µM | 5.63 µM | 3.14 µM | 2.82 µM | 20.9 µM | – | 4.18 µM | 6.71 µM | 1.8 µM | – | 1.89 µM | 2.24 µM | 1.74 µM | 1.39 µM | 7.3 µM | – | 2510 nM | 1.99 µM
18 | CCCS(=O)(=O)Nc1ccc(F)c(C(=O)c2c[nH]c3ncc(-c4ccc(Cl)cc4)cc23)c1F | 19.6 µM and > 10 µM | – | 14 µM and > 10 µM | 30 µM and > 10 µM | 26.2 µM and > 10 µM | 15.1 µM and > 10 µM | 12.3 µM and > 8.97 µM | – | 22.3 µM and > 10 µM | 23.7 µM and > 10 µM | 4.32 µM and > 8.72 µM | – | 3.01 µM and 5 µM | 10.2 µM and > 9.13 µM | 4.13 µM and 5.43 µM | 4.96 µM and 4.79 µM | 1.72 µM and 2.59 µM | – | 4010 nM and 5420 nM | 7.14 µM and > 7.96 µM
